# Source: patent US11352350B2, “IRAK degraders and uses thereof” (Kymera Therapeutics, Inc., priority 2018, dated 2022)
# Like-named read-outs stand apart in the source and are kept apart here.
# Experiments:
# OCI-LY10 = experiment: CTG Cell Viability Assay - OCI-LY10; type: cell-based, human; settings: OCI-LY10, 4 days, read-out: CTG Cell Viability Assay - OCI-LY10: Average external-IC50
# Summary of the method: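 OCI-LY10 cells exposed to 9-dose, 1:3 dilutions from 10 μM top (0.2% DMSO) for 4 days at 37° C, 5% CO2. Viability by CellTiter-Glo luminescence; IC50 from three-parameter logistic fit.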
# IRAK4 = IRAK4 (Homo sapiens (Human), UniProt Q9NWZ3); experiment: IRAK4 MSD degradation in OCI-LY10; type: cell-based
# Sequence of IRAK4 (Q9NWZ3 whole entry): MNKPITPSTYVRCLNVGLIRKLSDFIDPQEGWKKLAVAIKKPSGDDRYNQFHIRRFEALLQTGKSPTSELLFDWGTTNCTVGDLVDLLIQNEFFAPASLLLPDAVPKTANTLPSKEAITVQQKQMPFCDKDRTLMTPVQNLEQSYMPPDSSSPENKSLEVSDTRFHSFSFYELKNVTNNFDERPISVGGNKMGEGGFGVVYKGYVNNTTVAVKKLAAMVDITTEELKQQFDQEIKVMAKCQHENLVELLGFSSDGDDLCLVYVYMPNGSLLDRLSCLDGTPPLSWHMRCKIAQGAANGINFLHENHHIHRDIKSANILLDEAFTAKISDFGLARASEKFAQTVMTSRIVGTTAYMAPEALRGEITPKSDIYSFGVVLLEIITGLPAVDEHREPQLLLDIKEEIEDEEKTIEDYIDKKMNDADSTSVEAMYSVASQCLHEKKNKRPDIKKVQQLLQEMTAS
# Summary of the method: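 OCI-LY10 cells treated with 8-point 1:3 dilutions (top 1 to 10 μM final) for 4 to 24 h at 37° C. Lysate IRAK4 measured by MSD sandwich immunoassay (2H9 capture, Y279 detection, SULFO-TAG anti-rabbit). DC50 from three-parameter logistic fit.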
# [1] = OCI-LY10, 4 hrs, MSD, read-out: IRAK4 MSD degradation in OCI-LY10 at 4 hrs: Average external-Abs DC50
# [2] = OCI-LY10, 24 hrs, MSD, read-out: IRAK4 MSD degradation in OCI-LY10 at 24 hrs: Average external-Abs DC50
# [3] = OCI-LY10, 4 hrs, read-out: IRAK4 MSD degradation in OCI-LY10 at 4 hrs: DC50
# [4] = OCI-LY10, 24 hrs, read-out: IRAK4 MSD degradation in OCI-LY10 at 24 hrs: DC50
Structure (SMILES),"IC50 (OCI-LY10; Homo sapiens, OCI-Ly10, 96 h) [nM]",DC50 (IRAK4; [1]) [nM],DC50 (IRAK4; [2]) [nM],IC50 (OCI-LY10) [nM],DC50 (IRAK4; [3]) [nM],DC50 (IRAK4; [4]) [nM]
CN(CCCN1CCO[C@@H](CNc2cccc3c2C(=O)N(C2CCC(=O)NC2=O)C3=O)C1)C[C@H]1CC[C@H](n2cc(NC(=O)c3cnn4ccc(N5C[C@H]6C[C@@H]5CO6)nc34)c(C(F)F)n2)CC1 (stereo partly shown) [I-347],< 50,100 to 1000,10 to 100,–,–,–
O=C1CCC(N2C(=O)c3cccc(OCCCOC4CCN(C[C@H]5CC[C@H](n6cc(NC(=O)c7cnn8ccc(N9CCOCC9)nc78)c(C(F)F)n6)CC5)CC4)c3C2=O)C(=O)N1 (stereo partly shown) [I-297],–,10 to 100,–,> 1000,–,–
C=C(C)c1nn([C@H]2CC[C@H](CN(C)C3CCN(Cc4cccc5c4n(C)c(=O)n5C4CCC(=O)NC4=O)CC3)CC2)cc1NC(=O)c1cnn2ccc(NCC3CC3)nc12 (stereo partly shown) [I-173],> 1000,100 to 1000,–,–,–,–
CN(CCC1CCN(Cc2cccc3c2n(C)c(=O)n3C2CCC(=O)NC2=O)CC1)C[C@H]1CC[C@H](n2cc(NC(=O)c3cnn4ccc(N5C[C@H](N)CC(F)(F)C5)nc34)c(C(F)F)n2)CC1 (stereo partly shown) [I-155],> 1000,10 to 100,–,–,–,–
CC[C@@H]1[C@H](F)C(=O)N[C@@H]1COc1ncc(C#C[C@H]2CC[C@H](CN(C)CCCOCCNc3cccc4c3C(=O)N(C3CCC(=O)NC3=O)C4=O)CC2)c2cc(C(N)=O)c(OC)cc12 (stereo partly shown) [I-387],< 50,100 to 1000,–,–,–,–
O=C1CCC(N2C(=O)c3cccc(NCC4CC5(CCN(C(=O)[C@H]6CC[C@H](n7cc(NC(=O)c8cnn9ccc(N%10CCNCC%10)nc89)c(C(F)F)n7)CC6)CC5)C4)c3C2=O)C(=O)N1 (stereo partly shown) [I-370],100 to 500,10 to 100,–,–,–,–
O=C1CCC(N2Cc3c(OCc4ccc(CN5CCN(C[C@H]6CC[C@H](n7cc(NC(=O)c8cnn9ccc(N%10CCOCC%10)nc89)c(C(F)F)n7)CC6)CC5)cc4)cccc3C2=O)C(=O)N1 (stereo partly shown) [I-377],< 50,> 1000,< 10,–,–,–
O=C1CCC(N2Cc3c(NCCCOC4CCN(C[C@H]5CC[C@H](n6cc(NC(=O)c7cnn8ccc(N9CCOCC9)nc78)c(C(F)F)n6)CC5)CC4)cccc3C2=O)C(=O)N1 (stereo partly shown) [I-330],> 1000,–,< 10,–,–,–
O=C1CCC(N2C(=O)c3cccc(NCCCOC[C@@H]4CN(C[C@H]5CC[C@H](n6cc(NC(=O)c7coc(-c8ccnc(NCC9CC9)c8)n7)c(C(F)F)n6)CC5)CCO4)c3C2=O)C(=O)N1 (stereo partly shown) [I-353],100 to 500,10 to 100,10 to 100,–,–,–
CN(CCN1CCN(c2cccc3c2C(=O)N(C2CCC(=O)NC2=O)C3=O)CC1)C[C@H]1CC[C@H](n2cc(NC(=O)C3CNN4C=CC(N5CCOCC5)=NC34)c(C(F)F)n2)CC1 (stereo partly shown) [I-224],> 1000,100 to 1000,–,–,–,–
CC[C@@H]1[C@H](F)C(=O)N[C@@H]1COc1ccc(C#C[C@H]2CC[C@H](CN3CCC4(CC3)CC(CNc3cccc5c3C(=O)N(C3CCC(=O)NC3=O)C5=O)C4)CC2)c2cc(C(N)=O)c(OC)cc12 (stereo partly shown) [I-372],< 50,> 1000,–,–,–,–
C[C@H]1CN(c2ccn3ncc(C(=O)Nc4cn([C@H]5CC[C@H](CN6CCC(OCCCc7cccc8c7n(C)c(=O)n8C7CCC(=O)NC7=O)CC6)CC5)nc4C(F)F)c3n2)C[C@H](C)O1 (stereo partly shown) [I-285],> 1000,10 to 100,–,–,–,–
O=C1CCC(N2C(=O)c3cccc(NCC4CC5(CCN(C[C@H]6CC[C@H](n7cc(NC(=O)c8cnn9ccc(N%10C[C@H]%11C[C@@H]%10CO%11)nc89)c(C(F)F)n7)CC6)CC5)C4)c3C2=O)C(=O)N1 (stereo partly shown) [I-373],< 50,> 1000,10 to 100,–,–,–
O=C1CCC(N2C(=O)c3cccc(NCCCOC[C@H]4CC[C@H](n5cc(NC(=O)c6cnn7ccc(N8C[C@H]9C[C@@H]8CO9)nc67)c(C(F)F)n5)CC4)c3C2=O)C(=O)N1 (stereo partly shown) [I-375],500 to 1000,> 1000,–,–,–,–
Cn1c(=O)n(C2CCC(=O)NC2=O)c2cccc(CCCOCCCN3CCC(n4cc(NC(=O)c5cnn6ccc(N7CCNCC7)nc56)c(C(F)F)n4)CC3)c21 (stereo not shown) [I-180],> 1000,10 to 100,–,–,–,–
O=C1CCC(N2C(=O)c3cccc(NCC(=O)N4CC5(CCN(C[C@H]6CC[C@H](n7cc(NC(=O)c8cnn9ccc(N%10CCOCC%10)nc89)c(C(F)F)n7)CC6)CC5)C4)c3C2=O)C(=O)N1 (stereo partly shown) [I-443],< 50,–,–,–,< 10,< 10

Structure (SMILES),"IC50 (OCI-LY10; Homo sapiens, OCI-Ly10, 96 h) [nM]",DC50 (IRAK4; [1]) [nM],DC50 (IRAK4; [2]) [nM],IC50 (OCI-LY10) [nM],DC50 (IRAK4; [3]) [nM],DC50 (IRAK4; [4]) [nM]
CN(CCCOCCCN(C)C(=O)c1ccc(CNCc2ccc(-c3ccc4c(cnn4CC4CC4)c3)cc2)cc1)C[C@H]1CC[C@H](n2cc(NC(=O)c3coc(-c4ccnc(NCC5CC5)c4)n3)c(C(F)F)n2)CC1 [I-133],> 1000,> 1000,> 1000,–,–,–
O=C1CCC(N2C(=O)c3cccc(NCC4CCC5(CC4)CN(C[C@H]4CC[C@H](n6cc(NC(=O)c7cnn8ccc(N9C[C@H]%10C[C@@H]9CO%10)nc78)c(C(F)F)n6)CC4)C5)c3C2=O)C(=O)N1 (stereo partly shown) [I-552],< 50,–,–,–,100 to 1000,–
CC[C@@H]1[C@H](F)C(=O)N[C@@H]1COc1ncc(C#C[C@H]2CC[C@H](CN(C)C3CCN(Cc4ccc5c(c4)n(C)c(=O)n5C4CCC(=O)NC4=O)CC3)CC2)c2cc(C(N)=O)c(OC)cc12 (stereo partly shown) [I-190],> 1000,100 to 1000,10 to 100,–,–,–
O=C1CCC(N2C(=O)c3cccc(NCCCCCCC[C@H]4CC[C@H](n5cc(NC(=O)c6cnn7ccc(N8C[C@H]9C[C@@H]8CO9)nc67)c(C(F)F)n5)CC4)c3C2=O)C(=O)N1 (stereo partly shown) [I-354],> 1000,> 1000,–,–,–,–
CN(C[C@H]1CC[C@H](n2cc(NC(=O)c3cnn4ccc(NCCC(C)(C)O)nc34)c(C(F)F)n2)CC1)[C@H]1CC[C@H](Nc2cccc3c2C(=O)N(C2CCC(=O)NC2=O)C3=O)CC1 (stereo partly shown) [I-502],< 50,–,–,–,< 10,< 10
Cn1c(=O)n(C2CCC(=O)NC2=O)c2ccc(CCCOC3CCN(C[C@H]4CC[C@H](n5cc(NC(=O)c6cnn7ccc(N8CCOCC8)nc67)c(C(F)F)n5)CC4)CC3)cc21 (stereo partly shown) [I-176],> 1000,10 to 100,–,–,–,–
CN(CCCN1CCN(c2cccc3c2C(=O)N(C2CCC(=O)NC2=O)C3=O)CC1)C[C@H]1CC[C@H](n2cc(NC(=O)c3cnn4ccc(N5CCOCC5)nc34)c(C(F)F)n2)CC1 (stereo partly shown) [I-225],> 1000,10 to 100,–,–,–,–
CN(CCCOCCCc1cccc2c1n(C)c(=O)n2C1CCC(=O)NC1=O)C[C@H]1CC[C@H](n2cc(NC(=O)c3cnn4ccc(N5CCOCC5)nc34)c(C(F)F)n2)CC1 (stereo partly shown) [I-259],> 1000,< 10,< 10,–,–,–
CC[C@@H]1[C@H](F)C(=O)N[C@@H]1COc1ncc(C#C[C@H]2CC[C@H](CN(C)C3CCN(Cc4cccc5c4n(C)c(=O)n5C4CCC(=O)NC4=O)CC3)CC2)c2cc(C(N)=O)c(OC)cc12 (stereo partly shown) [I-189],> 1000,10 to 100,< 10,–,–,–
CC[C@@H]1CC(=O)N[C@@H]1COc1ncc(C#CC2CCN(CCCOCCCc3cccc4c3n(C)c(=O)n4C3CCC(=O)NC3=O)CC2)c2cc(C(N)=O)c(OC)cc12 (stereo partly shown) [I-203],> 1000,> 1000,100 to 1000,–,–,–
O=C1CCC(N2C(=O)c3cccc(OCCCOC4CCN(C[C@H]5CC[C@H](n6cc(NC(=O)c7cnn8ccc(N[C@@H]9CCCC[C@@H]9O)nc78)c(C(F)F)n6)CC5)CC4)c3C2=O)C(=O)N1 (stereo partly shown) [I-296],> 1000,10 to 100,–,–,–,–
"CN(CCC#CCN)C[C@H]1CC[C@H](n2cc(NC(=O)c3cnn4ccc(N5CCOCC5)nc34)c(C(F)F)n2)CC1 [I-412, N-[1-[4-[[5-aminopent-3-ynyl(methyl)amino]methyl]cyclohexyl]-3-(difluoromethyl)pyrazol-4-yl]-5-morpholino-pyrazolo [1,5-a]pyrimidine-3-carboxamide]",> 1000,> 1000,> 1000,–,–,–
O=C1CCC(N2C(=O)c3cccc(N[C@H]4C[C@H](OC5CCN(C[C@H]6CC[C@H](n7cc(NC(=O)c8cnn9ccc(N%10C[C@H]%11C[C@@H]%10CO%11)nc89)c(C(F)F)n7)CC6)CC5)C4)c3C2=O)C(=O)N1 (stereo partly shown) [I-505],> 1000,–,–,–,10 to 100,< 10
CN1C(=O)C(C2CCC(=O)NC2=O)c2cccc(CCCOC3CCN(C[C@H]4CC[C@H](n5cc(NC(=O)c6cnn7ccc(N8CC9(COC9)C8)nc67)c(C(F)F)n5)CC4)CC3)c21 (stereo partly shown) [I-287],> 1000,< 10,–,–,–,–
CN(C(=O)c1cnn2ccc(N3CCOCC3)nc12)c1cn([C@H]2CC[C@H](CN3CCC(OCCCNc4cccc5c4C(=O)N(C4CCC(=O)NC4=O)C5=O)CC3)CC2)nc1C(F)F (stereo partly shown) [I-501],50 to 100,–,–,–,> 1000,> 1000
